Test results taken from US8546421B1, “Oncogenic-RAS-signal dependent lethal compounds” (The Trustees of Columbia University in the City of New York, priority 2007, dated 2013).

How the values were obtained:
[1] = system: BJ-TERT/LT/ST/RAS^V12 cells; assay: Counter screening with biologically active compounds; type: cell-based, human
Description: Biologically active compounds listed in Table 1 were dissolved in BJ medium at 10× final concentration and aliquoted into eppendorf tubes. 100 μL of each 10× solution was transferred to column 1 to column 12 or column 13 to column 24 of a single row in a 384-well daughter plate. This plate was designated as ‘10× biologically active plate’. In order to prepare lethal compound solution, Erastin and compounds 3, 6, 27, and 36 were dissolved in BJ medium at a concentration of 100 μg/mL, 400 μg/mL, 400 μg/mL, 100 μg/mL, and 200 μg/mL, respectively. Empty daughter plates were filled with 50 μL BJ media except for columns 5 and 13 where 100 μL of each lethal solution was transferred. After lethal solution transfer, 2-fold dilution series across columns 5 to 12 and columns 13 to 20 was made by transferring 50 μL compound solution to the next column successively (8-point dilution series), with mixing. These five plates were each designated ‘10× lethal plate’. Five assay plates were prepared by seeding 4,000 BJ-TERT/LT/ST/RAS^V12 cells per well in 32 μL of growth media in black, clear bottom 384-well plates. Cells in assay plates were first treated with biologically active compounds by transferring 4 μL from the 10× inhibitor plate. Cells were then treated with each lethal compound in a 2-fold dilution series by transferring 4 μL solution from each 10× lethal plate. […] Percent growth inhibition (% GI) was calculated by the following formula using fluorescence intensity values: % GI=100*(1−(X−N)/([…])) wherein X is the fluorescent intensity value measured at 590 nm for cells treated with biologically active compound and lethal compound; N is the fluorescent intensity value measured at 590 nm for a control containing no cells (i.e. biologically active compound in growth media); and P is the fluorescent intensity value measured at 590 nm for a control containing no lethal compound (i.e., cells treated with biologically active compound). Counter Screening with Iron Chelators

[2] = system: BJ-derived cell lines (BJ-TERT/LT/ST/RAS^V12 cells); assay: Vi-Cell analysis (trypan blue exclusion); type: cell-based, human; details: 24 hours
Description: 200,000 cells were seeded in 6-well plates and treated with the indicated amount of 2-fold dilution series concentration of a candidate compound in 2 mL BJ growth medium. After 24 hours, cells were released with trypsin/EDTA, harvested in 1.1 mL growth medium, and transferred to a Vi-Cell (Beckman Coulter) disposable cup. After, trypan blue staining, 100 images of sample were taken and analysis of the images was carried out automatically by a Vi-Cell cell viability analyzer (Beckman Coulter).

[3] = system: A549, Calu-1, PaCa, and HCT116 cells; assay: Alamar blue assay in KRAS-mutation-harboring cancer cells; type: cell-based, human
Description: A549, Calu-1, HCT116 and MIA PaCa-2 cell lines have an oncogenic mutation in the KRAS gene. Compounds which tested positive in the oncogenic HRAS primary screen were also tested for their selectivity against oncogenic KRAS which is more commonly mutated in human cancers.

CCRF-CEM = assay: NCI60 anti-cancer screening
RPMI-8226 = assay: NCI60 anti-cancer screening
SR = assay: NCI60 anti-cancer screening
NCI-H522 = assay: NCI60 anti-cancer screening
HT29 = assay: NCI60 anti-cancer screening
SNB-75 = assay: NCI60 anti-cancer screening
LOX IMVI = assay: NCI60 anti-cancer screening
M14 = assay: NCI60 anti-cancer screening
SK-MEL-28 = assay: NCI60 anti-cancer screening
OVCAR-4 = assay: NCI60 anti-cancer screening
786-0 = assay: NCI60 anti-cancer screening
ACHN = assay: NCI60 anti-cancer screening
RXF393 = assay: NCI60 anti-cancer screening
UO-31 = assay: NCI60 anti-cancer screening
DU-145 = assay: NCI60 anti-cancer screening
HS 578T = assay: NCI60 anti-cancer screening
BT-549 = assay: NCI60 anti-cancer screening

SMILES: COC(=O)c1ccc(C2c3[nH]c4ccccc4c3CC(C(=O)OC)N2C(=O)CCl)cc1 (stereo not shown) [Compound 27]
- effect of pan-caspase inhibitors (z-VAD-fmk, Boc-D-fmk) on compound-induced cell death [1]: not blocked
- biologically active compounds that suppress compound-induced cell death ([1]; 36 bioactive compounds of Table 1, 24 hours, alamar blue): GSH, L-Mim, TLCK, DFOM, SU6656, Ro31-8220, and U0126 were effective
- potency and selectivity by trypan blue exclusion (in words) [2]: confirmed Compound 27 cell growth inhibition activity and selectivity
- activity in KRAS-mutation-harboring cancer cells (in words) [3]: active in all oncogenic-KRAS-harboring cancer cell lines tested
- GI50 (CCRF-CEM; Homo sapiens): 0.0195 µM
- CC50 (CCRF-CEM; Homo sapiens, read-out: LC 50%): 0.0953 µM
- GI 100% (CCRF-CEM; Leukemia): 0.0431 µM
- GI50 (RPMI-8226; Homo sapiens, RPMI-8226): 0.0431 µM
- CC50 (RPMI-8226; Homo sapiens, RPMI-8226, read-out: LC 50%): 6.99 µM
- GI 100% (RPMI-8226; RPMI-8226, Leukemia): 2.22 µM
- GI50 (SR; Homo sapiens): 0.4 µM
- CC50 (SR; Homo sapiens, read-out: LC 50%): 6.58 µM
- GI 100% (SR; Leukemia): 1.6 µM
- GI50 (NCI-H522; Homo sapiens, NCI-H522): 1.63 µM
- CC50 (NCI-H522; Homo sapiens, NCI-H522, read-out: LC 50%): 8.58 µM
- GI 100% (NCI-H522; NCI-H522, Non-small cell lung carcinoma): 3.74 µM
- GI 100% (HT29; HT29, Colon Cancer): 1.46 µM
- GI50 (HT29; Homo sapiens, HT-29): 0.415 µM
- CC50 (HT29; Homo sapiens, HT-29, read-out: LC 50%): 4.06 µM
- GI50 (SNB-75; Homo sapiens, SNB-75): 0.745 µM
- CC50 (SNB-75; Homo sapiens, SNB-75, read-out: LC 50%): > 10 µM
- GI 100% (SNB-75; SNB-75, CNS Cancer): 3.06 µM
- GI50 (LOX IMVI; Homo sapiens): 0.182 µM
- CC50 (LOX IMVI; Homo sapiens, read-out: LC 50%): 0.826 µM
- GI 100% (LOX IMVI; Melanoma): 0.387 µM
- GI50 (M14; Homo sapiens, M14): 1.07 µM
- CC50 (M14; Homo sapiens, M14, read-out: LC 50%): 4.75 µM
- GI 100% (M14; M14, Melanoma): 2.25 µM
- GI50 (SK-MEL-28; Homo sapiens, SK-MEL-28): 1.62 µM
- CC50 (SK-MEL-28; Homo sapiens, SK-MEL-28, read-out: LC 50%): 6.76 µM
- GI 100% (SK-MEL-28; SK-MEL-28, Melanoma): 3.31 µM
- GI50 (OVCAR-4; Homo sapiens, OVCAR-4): 4.3 µM
- CC50 (OVCAR-4; Homo sapiens, OVCAR-4, read-out: LC 50%): > 10 µM
- GI 100% (OVCAR-4; OVCAR-4, Ovarian Cancer): >10 µM
- GI 100% (786-0; 786-0, Renal Cancer): 0.473 µM
- GI50 (786-0; Homo sapiens, 786-0): 0.0603 µM
- CC50 (786-0; Homo sapiens, 786-0, read-out: LC 50%): 2.52 µM
- GI50 (ACHN; Homo sapiens): 0.187 µM
- CC50 (ACHN; Homo sapiens, read-out: LC 50%): 3.25 µM
- GI 100% (ACHN; Renal Cancer): 1.05 µM
- GI50 (RXF393; Homo sapiens, RXF 393): 1.3 µM
- CC50 (RXF393; Homo sapiens, RXF 393, read-out: LC 50%): 6.93 µM
- GI 100% (RXF393; RXF393, Renal Cancer): 3 µM
- GI50 (UO-31; Homo sapiens, UO-31): 0.02 µM
- CC50 (UO-31; Homo sapiens, UO-31, read-out: LC 50%): 0.0743 µM
- GI 100% (UO-31; UO-31, Renal Cancer): 0.0385 µM
- GI 100% (DU-145; DU-145, Prostate Cancer): 1.4 µM
- GI50 (DU-145; Homo sapiens, DU-145): 0.308 µM
- CC50 (DU-145; Homo sapiens, DU-145, read-out: LC 50%): 4.01 µM
- GI 100% (HS 578T; HS 578T, Breast Cancer): 2.85 µM
- GI50 (HS 578T; Homo sapiens, Hs-578T): 0.403 µM
- CC50 (HS 578T; Homo sapiens, Hs-578T, read-out: LC 50%): > 10 µM
- GI 100% (BT-549; BT-549, Breast Cancer): 0.316 µM
- GI50 (BT-549; Homo sapiens, BT-549): 0.131 µM
- CC50 (BT-549; Homo sapiens, BT-549, read-out: LC 50%): 0.765 µM
